Test results taken from PubChem BioAssay AID1259407 (Chemical Carcinogenesis Research Information System (CCRIS), 2018).
Activity calls are given as the source filed them. No rule for the calls is given here.

System: CCRIS mutagenicity, Ames/micronucleus/aberration tests
Assay: CCRIS mutagenicity studies
[1] = Test System: AMES SALMONELLA TYPHIMURIUM, Strain/Indicator: TA98, Metabolic Activation: NONE, Method: PREINCUBATION
[2] = Test System: AMES SALMONELLA TYPHIMURIUM, Strain/Indicator: TA98, Metabolic Activation: RAT, LIVER, S-9, AROCLOR 1254, Method: PREINCUBATION
[3] = Test System: AMES SALMONELLA TYPHIMURIUM, Strain/Indicator: TA100, Metabolic Activation: NONE, Method: PREINCUBATION
[4] = Test System: AMES SALMONELLA TYPHIMURIUM, Strain/Indicator: TA100, Metabolic Activation: RAT, LIVER, S-9, AROCLOR 1254, Method: PREINCUBATION
[5] = Test System: AMES SALMONELLA TYPHIMURIUM, Strain/Indicator: TA1535, Metabolic Activation: NONE, Method: PREINCUBATION
[6] = Test System: AMES SALMONELLA TYPHIMURIUM, Strain/Indicator: TA1537, Metabolic Activation: NONE, Method: PREINCUBATION
[7] = Test System: AMES SALMONELLA TYPHIMURIUM, Strain/Indicator: TA98, Metabolic Activation: NONE, Method: STANDARD PLATE
[8] = Test System: AMES SALMONELLA TYPHIMURIUM, Strain/Indicator: TA100, Metabolic Activation: NONE, Method: STANDARD PLATE
[9] = Test System: AMES SALMONELLA TYPHIMURIUM, Strain/Indicator: TA102, Metabolic Activation: NONE, Method: STANDARD PLATE
[10] = Test System: AMES SALMONELLA TYPHIMURIUM, Strain/Indicator: TA98, Metabolic Activation: RAT, LIVER, S-9, AROCLOR 1254, Method: STANDARD PLATE
[11] = Test System: AMES SALMONELLA TYPHIMURIUM, Strain/Indicator: TA100, Metabolic Activation: RAT, LIVER, S-9, AROCLOR 1254, Method: STANDARD PLATE
[12] = Test System: Ames Salmonella typhimurium, Strain/Indicator: TA100, Metabolic Activation: None, Method: Preincubation

## OCCNCCO
End Point: IN VITRO CHROMOSOMAL ABERRATIONS, Test System: CHO CELLS, Metabolic Activation: NONE
  mutagenic call: inactive; negative
End Point: IN VITRO CHROMOSOMAL ABERRATIONS, Test System: CHO CELLS, Metabolic Activation: RAT, LIVER, S-9, AROCLOR 1254
  mutagenic call: inactive; negative; weak response at highest dose
Test System: AMES SALMONELLA TYPHIMURIUM, Strain/Indicator: TA98, Metabolic Activation: HAMSTER, LIVER, S-9, AROCLOR 1254, Method: PREINCUBATION
  mutagenic call: inactive; negative
[1]
  mutagenic call: inactive; negative
[2]
  mutagenic call: inactive; negative
Test System: AMES SALMONELLA TYPHIMURIUM, Strain/Indicator: TA100, Metabolic Activation: HAMSTER, LIVER, S-9, AROCLOR 1254, Method: PREINCUBATION
  mutagenic call: inactive; negative
[3]
  mutagenic call: inactive; negative
[4]
  mutagenic call: inactive; negative
Test System: AMES SALMONELLA TYPHIMURIUM, Strain/Indicator: TA1535, Metabolic Activation: HAMSTER, LIVER, S-9, AROCLOR 1254, Method: PREINCUBATION
  mutagenic call: inactive; negative
[5]
  mutagenic call: inactive; negative
Test System: AMES SALMONELLA TYPHIMURIUM, Strain/Indicator: TA1535, Metabolic Activation: RAT, LIVER, S-9, AROCLOR 1254, Method: PREINCUBATION
  mutagenic call: inactive; negative
Test System: AMES SALMONELLA TYPHIMURIUM, Strain/Indicator: TA1537, Metabolic Activation: HAMSTER, LIVER, S-9, AROCLOR 1254, Method: PREINCUBATION
  mutagenic call: inactive; negative
[6]
  mutagenic call: inactive; negative
Test System: AMES SALMONELLA TYPHIMURIUM, Strain/Indicator: TA1537, Metabolic Activation: RAT, LIVER, S-9, AROCLOR 1254, Method: PREINCUBATION
  mutagenic call: inactive; negative

## CC1(C)C=C(C(=O)O)C(C)(C)N1[O]
[7]
  mutagenic call: inactive; negative
[8]
  mutagenic call: inactive; negative
Test System: AMES SALMONELLA TYPHIMURIUM, Strain/Indicator: TA102, Metabolic Activation: NONE, Method: STANDARD
  mutagenic call: inactive; negative
[9]
  mutagenic call: inactive; negative
Test System: AMES SALMONELLA TYPHIMURIUM, Strain/Indicator: TA102, Metabolic Activation: XANTHINE OXIDASE, Method: STANDARD PLATE
  mutagenic call: inactive; negative
Test System: AMES SALMONELLA TYPHIMURIUM, Strain/Indicator: TA104, Metabolic Activation: NONE, Method: STANDARD PLATE
  mutagenic call: inactive; negative
Test System: AMES SALMONELLA TYPHIMURIUM, Strain/Indicator: TA104, Metabolic Activation: XANTHINE OXIDASE, Method: STANDARD PLATE
  mutagenic call: inactive; negative

## O=c1[nH]c(=O)n([C@H]2C[C@H](O)[C@@H](CO)O2)cc1CO
[7]
  mutagenic call: inactive; negative
[10]
  mutagenic call: inactive; negative
[8]
  mutagenic call: active; positive
[11]
  mutagenic call: active; positive
[9]
  mutagenic call: active; positive
Test System: AMES SALMONELLA TYPHIMURIUM, Strain/Indicator: TA1537, Metabolic Activation: NONE, Method: STANDARD PLATE
  mutagenic call: inactive; negative
Test System: AMES SALMONELLA TYPHIMURIUM, Strain/Indicator: TA1537, Metabolic Activation: RAT, LIVER, S-9, AROCLOR 1254, Method: STANDARD PLATE
  mutagenic call: inactive; negative
Test System: CHINESE HAMSTER V-79, Strain/Indicator: V-79/6-THIOGUANINE, Metabolic Activation: NONE
  mutagenic call: active; positive
Test System: CHINESE HAMSTER V-79, Strain/Indicator: V-79/OUABAIN, Metabolic Activation: NONE
  mutagenic call: inactive; negative

## O=c1cc(CO)occ1O
End Point: IN VIVO MICRONUCLEUS, Test System: HEPATOCYTES, Species: RAT, Strain/Sex: FISHER 344 OR SD/MALE, Route: ORAL OR IP
  mutagenic call: inactive; negative
End Point: IN VIVO MICRONUCLEUS, Test System: PERIPHERAL BLOOD RETICULOCYTES, Species: RAT, Strain/Sex: FISHER 344 OR SD/MALE, Route: ORAL OR IP
  mutagenic call: active; positive
End Point: In vivo micronucleus, Test System: Mononucleated hepatocytes/1000 hepatocytes, Species: Mouse, Strain/Sex: Ddy/Male, Route: Oral
  mutagenic call: active; positive (dose related increase, significant only at high dose)
End Point: In vivo micronucleus, Test System: Mononucleated hepatocytes/1000 hepatocytes, Species: Rat, Strain/Sex: F344/Male, Route: Oral
  mutagenic call: active; positive (dose related increase, significant only at high dose)
[1]
  mutagenic call: active; positive
[7]
  mutagenic call: active; positive
[2]
  mutagenic call: active; positive
[10]
  mutagenic call: active; positive
[8]
  mutagenic call: active; positive
Test System: AMES SALMONELLA TYPHIMURIUM, Strain/Indicator: TA100, Metabolic Activation: RAT, LIVER, MICROSOMES, PHENOBARBITAL, Method: STANDARD PLATE
  mutagenic call: active; positive
[4]
  mutagenic call: inactive; negative
[11]
  mutagenic call: active; positive
Test System: AMES SALMONELLA TYPHIMURIUM, Strain/Indicator: TA100, Metabolic Activation: RAT, LIVER, S-9, PHENOBARBITAL, Method: PREINCUBATION
  mutagenic call: inactive; negative
[12]
  mutagenic call: active; positive
Test System: Ames Salmonella typhimurium, Strain/Indicator: TA100, Metabolic Activation: Rat, Liver, S-9, Phenobarbital and 6-naphthoflavone, Method: Preincubation
  mutagenic call: active; positive

## Oc1cccc2c1ccc1c3ccccc3ccc21
[10]
  mutagenic call: inactive; negative
[8]
  mutagenic call: inactive; negative

## CCOC(=O)c1ccccc1N
Test System: AMES SALMONELLA TYPHIMURIUM, Strain/Indicator: TA98, Metabolic Activation: HAMSTER, LIVER, S-9, AROCLOR 1254 (10%), Method: PREINCUBATION
  mutagenic call: inactive; negative
[1]
  mutagenic call: inactive; negative
Test System: AMES SALMONELLA TYPHIMURIUM, Strain/Indicator: TA98, Metabolic Activation: RAT, LIVER, S-9, AROCLOR 1254 (10%), Method: PREINCUBATION
  mutagenic call: inactive; negative
Test System: AMES SALMONELLA TYPHIMURIUM, Strain/Indicator: TA100, Metabolic Activation: HAMSTER, LIVER, S-9, AROCLOR 1254 (10%), Method: PREINCUBATION
  mutagenic call: inactive; negative
[3]
  mutagenic call: inactive; negative
Test System: AMES SALMONELLA TYPHIMURIUM, Strain/Indicator: TA100, Metabolic Activation: RAT, LIVER, S-9, AROCLOR 1254 (10%), Method: PREINCUBATION
  mutagenic call: inactive; negative
Test System: AMES SALMONELLA TYPHIMURIUM, Strain/Indicator: TA1535, Metabolic Activation: HAMSTER, LIVER, S-9, AROCLOR 1254 (10%), Method: PREINCUBATION
  mutagenic call: inactive; negative
[5]
  mutagenic call: inactive; negative
Test System: AMES SALMONELLA TYPHIMURIUM, Strain/Indicator: TA1535, Metabolic Activation: RAT, LIVER, S-9, AROCLOR 1254 (10%), Method: PREINCUBATION
  mutagenic call: inactive; negative
Test System: AMES SALMONELLA TYPHIMURIUM, Strain/Indicator: TA1537, Metabolic Activation: HAMSTER, LIVER, S-9, AROCLOR 1254 (10%), Method: PREINCUBATION
  mutagenic call: inactive; negative
[6]
  mutagenic call: inactive; negative
Test System: AMES SALMONELLA TYPHIMURIUM, Strain/Indicator: TA1537, Metabolic Activation: RAT, LIVER, S-9, AROCLOR 1254 (10%), Method: PREINCUBATION
  mutagenic call: inactive; negative

## CCCCNC(=O)c1cc(N)ccc1OC1CCCCC1
Test System: Ames Salmonella typhimurium, Strain/Indicator: TA98, Metabolic Activation: None, Method: Preincubation
  mutagenic call: inactive; negative. data given only in abstract.
Test System: Ames Salmonella typhimurium, Strain/Indicator: TA98, Metabolic Activation: Rat, Liver, S-9, Phenobarbital and beta-naphthoflavone, Method: Preincubation
  mutagenic call: active; positive. a hydroxylated form of pa7 appears to be the active component.
[12]
  mutagenic call: inactive; negative. data given only in abstract.
Test System: Ames Salmonella typhimurium, Strain/Indicator: TA100, Metabolic Activation: Rat, Liver, S-9, Phenobarbital and beta-naphthoflavone, Method: Preincubation
  mutagenic call: active; positive. a hydroxylated form of pa7 appears to be the active component.
Test System: Ames Salmonella typhimurium, Strain/Indicator: TA102, Metabolic Activation: None, Method: Preincubation
  mutagenic call: inactive; negative. data given only in abstract.
Test System: Ames Salmonella typhimurium, Strain/Indicator: TA1535, Metabolic Activation: None, Method: Preincubation
  mutagenic call: inactive; negative. data given only in abstract.
Test System: Ames Salmonella typhimurium, Strain/Indicator: TA1537, Metabolic Activation: None, Method: Preincubation
  mutagenic call: inactive; negative. data given only in abstract.
